The text below walks through data of patent US8628864B2, “Indolo[3,2,1-jk]carbazole compound and organic light-emitting device containing the same” (Canon Kabushiki Kaisha, priority 2010, dated 2014).

Holding throughout (type): physicochemical
The nature of data set [1]: Ionization potential of evaporated thin film, photoelectron spectrometer AC-3. The protocol:
The ionization potential of the evaporated thin film used in the measurement of the energy gap described above was measured with a photoelectron spectrometer AC-3 (manufactured by Riken Keiki Co., Ltd.). The ionization potential of the exemplary compound C-1 was 6.01 eV.

Data set [2] is described as follows: Color of evaporated film on glass substrate left to stand in the air. Particulars: in the air at room temperature, approximately two hours.
A short description of data set [3]: Solubility: amount of chlorobenzene required to dissolve 10 mg of compound. Particulars: 10 mg compound. The protocol: The amount of chlorobenzene required to dissolve 10 mg of the exemplary compound C-1 was determined. As a result, the amount of chlorobenzene required to dissolve 10 mg of the exemplary compound C-1 was 1 ml or less.

Consider `c1ccc2c(c1)c1cc(-c3cc(-c4cc5c6ccccc6n6c7ccccc7c(c4)c56)cc(-c4cc5c6ccccc6n6c7ccccc7c(c4)c56)c3)cc3c4ccccc4n2c13` [FH-01], for which the Ionization potential in data set [1] came to 5.83 eV. In addition, the “Color of film 2 h after film formation” value in data set [2] is “pale yellowish brown”. Further, the “Amount of chlorobenzene required to dissolve 10 mg of compound” value in data set [3] is 50 or more ml.
The molecule `c1ccc2c(c1)c1cc(-c3ccc(-c4cc5c6ccccc6n6c7ccccc7c(c4)c56)cc3)cc3c4ccccc4n2c13` [FH-02] returned an Ionization potential in data set [1] of 5.72 eV. Besides, in data set [2], the “Color of film 2 h after film formation” value is given as “pale yellowish brown”. Further, the “Amount of chlorobenzene required to dissolve 10 mg of compound” value in data set [3] was 10 mL.
